According to patent US5175146A, “Synthetic calcitonin peptides” (Vical, Inc., priority 1990, dated 1992):
Starred links: 1 amine or outer side, 2 acyl side, 3 side chain; linkers in the order of their positions; H or OH if unused. Positions of bridges follow the written chain, without caps; N, C: chain ends. Residues, ends and D or L forms follow the SMILES beside them. Suc = O=C(CCC(=O)[*:2])[*:1]

Assays:
[1] = test system: Male rats (Sprague Dawley); experiment: Hypocalcemic activity: serum Ca++ decrease in rats after subcutaneous injection; format: in vivo; conditions: rat serum
Experimental: Calcitonins lower the blood calcium of immature rats by inhibiting bone resorption. Their potency can be assessed by determining the micrograms of peptide required to reduce the serum calcium by ten percent. The results of in vivo tests of the biological activities of synthetic calcitonin peptides of the invention are shown in Example 37.
This activity was measured as follows: Male rats (Sprague Dawley) weighing approximately 100 grams were fasted overnight. Peptides according to the invention, comprising various potency-enhancing modifications, were dissolved in pH 7.4 PBS buffer at a concentration range of 0.001 microgram to about 100 microgram per ml. The rats were anesthetized with Metophane10, weighed and injected subcutaneously with the peptide solutions in a dose of from 0.001 to about 100 microgram per kilogram of body weight. […] Calcium-lowering potencies of the synthetic peptides can be calculated in International units (IU) per mg as described by the method of M. Kumar et al., J. Endocrinology 33:469-475 (1964). According to this test, 10 IU is defined as the amount of peptide necessary for lowering Ca++ concentration by 10% in 100 gram rats one hour after subcutaneous injection. Serum Ca++ levels in the rat after subcutaneous injection of various peptides are summarized below: […]

[2] = set-up: species or system rabbits; conditions: rabbit, in vivo
Experimental: Peptides of the formula I when administered intranasally show hypocalcemic effects in animals. In order to determine their bioavailability, the effect of hypocalcemic peptides administered intranasally were compared with those administered by intravenous injection, as described below. Nasal powdery formulations containing 100 IU per 30 mg of dry powder were prepared substantially as described in U.S. Pat. No. 4,613,500. Peptides were administered intranasally at a dose of 2.8 IU/kg or intravenously at a dose of 1.75 IU/kg to rabbits. Blood samples were withdrawn before administering the peptides and 0.5, 1, 2, 4, and 6 hours after administration, and serum calcium levels determined. The ratios of areas under the curve of hypocalcemic effect (0 to 6 hours) after nasal and intravenous administration are calculated.

Compound	Ca++ Decrease ([1]; dose 1 ug/kg s.c., 1 hr) [mg/dL]	Ca++ Decrease ([1]; dose 10 ug/kg s.c., 1 hr) [mg/dL]	Ca++ Decrease ([1]; dose 100 ug/kg s.c., 1 hr) [mg/dL]	Ratio of Nasal:i.v. Bioavailability [2] [%]	other results
[(D-Ala-Ada-Ser)^5, Ala^7, des-^22 ]-Avian Calcitonin (5-32)	0.32	1.42	1.82	–	–
[(LeuCys)^1, Leu^8 ]-eCT	3.35	–	–	37.5	Ca++ Decrease ([1]; dose 0.03 ug/kg s.c., 1 hr): 1.24 mg/dL
[(SerThr)2 -Lys-7]-cCT(7-32)	2.09	2.75	2.75	–	–
CC(C)C[C@H](NC(=O)[C@H](CC(C)C)NC(=O)[C@@H]1CCCCNC(=O)CCC(=O)N[C@@H](CO)C(=O)N[C@@H](CC(N)=O)C(=O)N[C@@H](CC(C)C)C(=O)N[C@@H](CO)C(=O)N[C@@H]([C@@H](C)O)C(=O)N1)C(=O)NCC(=O)N[C@@H](CCCCN)C(=O)N[C@@H](CC(C)C)C(=O)N[C@@H](CO)C(=O)N[C@@H](CCC(N)=O)C(=O)N[C@@H](CCC(=O)O)C(=O)N[C@@H](CC(C)C)C(=O)N[C@@H](Cc1c[nH]cn1)C(=O)N[C@@H](CCCCN)C(=O)N[C@@H](CC(C)C)C(=O)N[C@@H](CCC(N)=O)C(=O)N[C@H](C(=O)N[C@@H](Cc1ccc(O)cc1)C(=O)N1CCC[C@H]1C(=O)N[C@@H](CCCNC(=N)N)C(=O)N[C@H](C(=O)N[C@@H](CC(=O)O)C(=O)N[C@H](C(=O)NCC(=O)N[C@@H](C)C(=O)NCC(=O)N[C@H](C(=O)N1CCC[C@H]1C(N)=O)[C@@H](C)O)C(C)C)[C@@H](C)O)[C@@H](C)O (SNLSTKLLGKLSQELHKLQTYPRTDVGAGTP-NH2; linker N-6 via Suc)	–	–	–	14.3	–
[(Ac0AOA-SerThr)2 -Lys-7]-cCT(7-32)	2.29	2.45	2.34	–	Ca++ Decrease ([1]; dose 0.1 ug/kg s.c., 1 hr): 0.42 mg/dL; Ca++ Decrease ([1]; dose 0.4 ug/kg s.c., 1 hr): 0.45 mg/dL
CC[C@H](C)[C@H](NC(=O)[C@H](C)NC(=O)[C@@H](NC(=O)[C@H](CCC(N)=O)NC(=O)[C@@H]1CCCN1C(=O)[C@H](Cc1ccccc1)NC(=O)[C@@H](NC(=O)[C@H](Cc1c[nH]cn1)NC(=O)[C@H](Cc1ccccc1)NC(=O)[C@H](CCCCN)NC(=O)[C@H](CC(N)=O)NC(=O)[C@H](CC(C)C)NC(=O)[C@H](CC(=O)O)NC(=O)[C@H](CCC(N)=O)NC(=O)[C@@H](NC(=O)[C@H](CC(C)C)NC(=O)[C@@H](NC(=O)CNC(=O)[C@H](CC(C)C)NC(=O)[C@H](CC(C)C)NC(=O)[C@@H]1CSSC[C@H](N)C(=O)NCC(=O)N[C@@H](CC(N)=O)C(=O)N[C@@H](CC(C)C)C(=O)N[C@@H](CO)C(=O)N[C@@H]([C@@H](C)O)C(=O)N1)[C@@H](C)O)[C@@H](C)O)[C@@H](C)O)[C@@H](C)O)C(=O)NCC(=O)N[C@H](C(=O)NCC(=O)N[C@@H](C)C(=O)N1CCC[C@H]1C(N)=O)C(C)C [[Leu-8,12,16]-hCT, [Leu^8,12,16]-hCT] (H-CGNLSTCLLGTLTQDLNKFHTFPQTAIGVGAP-NH2; disulfide 1-7)	–	–	–	28.0	–
[(Chx-Ser-Thr)2 -Lys^7, Leu^8 ]-Eel Calcitonin (7-32) [[(ChxSerThr)2 -Lys^7, Leu^8]-eCT(7-32)]	2.42	–	–	17.4	Ca++ Decrease ([1]; dose 0.01 ug/kg s.c., 1 hr): 0.13 mg/dL; Ca++ Decrease ([1]; dose 0.03 ug/kg s.c., 1 hr): 0.24 mg/dL; Ca++ Decrease ([1]; dose 0.1 ug/kg s.c., 1 hr): 0.39 mg/dL; Ca++ Decrease ([1]; dose 0.32 ug/kg s.c., 1 hr): 1.09 mg/dL
[(Oleyl-Ser)-5,Ala-7]-cCT(5-32)	0.47	0.60	1.15	–	–
[(ADA-Ser)-5,Ala-7]-cCT(5-32)	0.19	2.83	–	–	Ca++ Decrease ([1]; dose 1 ug/kg s.c., 3 hr): 0.14 mg/dL; Ca++ Decrease ([1]; dose 3 ug/kg s.c., 1 hr): 0.33 mg/dL; Ca++ Decrease ([1]; dose 3 ug/kg s.c., 3 hr): 0.21 mg/dL; Ca++ Decrease ([1]; dose 10 ug/kg s.c., 3 hr): 2.98 mg/dL; Ca++ Decrease ([1]; dose 10 ug/kg s.c., 6 hr): 2.10 mg/dL
[(Chx-Ser)^5, Ala^7, des-^22 ]-Avian Calcitonin (5-32) [[(CHX-Ser)-5,Ala-7,des-22]-cCT(5-32)]	0.32	1.42	1.82	–	–
CC(C)C[C@H](NC(=O)[C@H](CC(C)C)NC(=O)[C@@H]1CSSC[C@H](N)C(=O)N[C@@H](CO)C(=O)N[C@@H](CC(N)=O)C(=O)N[C@@H](CC(C)C)C(=O)N[C@@H](CO)C(=O)N[C@@H]([C@@H](C)O)C(=O)N1)C(=O)NCC(=O)N[C@@H](CCCCN)C(=O)N[C@@H](CC(C)C)C(=O)N[C@@H](CO)C(=O)N[C@@H](CCC(N)=O)C(=O)N[C@@H](CCC(=O)O)C(=O)N[C@@H](CC(C)C)C(=O)N[C@@H](Cc1c[nH]cn1)C(=O)N[C@@H](CCCCN)C(=O)N[C@@H](CC(C)C)C(=O)N[C@@H](CCC(N)=O)C(=O)N[C@H](C(=O)N[C@@H](Cc1ccc(O)cc1)C(=O)N1CCC[C@H]1C(=O)N[C@@H](CCCNC(=N)N)C(=O)N[C@H](C(=O)N[C@@H](CC(=O)O)C(=O)N[C@H](C(=O)NCC(=O)N[C@@H](C)C(=O)NCC(=O)N[C@H](C(=O)N1CCC[C@H]1C(N)=O)[C@@H](C)O)C(C)C)[C@@H](C)O)[C@@H](C)O [(Leu^8)-eCT] (H-CSNLSTCLLGKLSQELHKLQTYPRTDVGAGTP-NH2; disulfide 1-7)	–	–	–	28.6	–
